The record followed here is patent US8673890B2, “2,3-dihydro-1H-isoindol-1-imine derivatives useful as thrombin PAR-1 receptor antagonist” (Janssen Pharmaceutica NV, priority 2009, dated 2014).

“And” between values parts separate entries of the source, which are not always exact repeats. Equal entries are not always repeated.

Experiment [1] deals with platelets in platelet-rich plasma. Kind of experiment: Thrombin-induced platelet aggregation in platelet-rich plasma. To be noted: for IC50: multiple values = individual measurements. In kind it is cell-based, human. How it is done: (§1) The procedure for this assay is similar to that described in Biological Example 2, above. Briefly, platelet aggregation studies were performed according to the method of Bednar et al. (Bednar, B., Condra, C., Gould, R. J., and Connolly, T. M., Thromb. Res., 77:453-463 (1995)). Platelet-rich plasma (PRP) concentrates prepared from healthy volunteers who were aspirin free for at least 7 days by venipuncture using EDTA as anticoagulant was purchased from Biological Specialties, Inc. (Colmar, Pa.). PPP (platelet-poor-plasma) was obtained by centrifugation of PRP at Max (3,000 rpms) for 15 min at room temperature. PRP was diluted to yield platelet count of 300×10^3 platelets/μL with PPP. For thrombin induced platelet aggregation: 118 μL of 500 mM GPRP-NH2 was added to 12 mL of 300×10^3 platelets before using (to clean the fibrinogen in the plasma.) GPRP was added just before the experiment. 15 μL of test compound solutions were added to 120 μL of platelets 5 min prior the agonist additions. Platelet aggregation was initiated by the addition of agonist shown to achieve 60-70% aggregation. Antagonist potency was estimated as a % inhibition of the control Har peptide or thrombin response to obtain an IC50.
(§2) Where multiple values are listed for a particular compound, said numbers represent individual measurements (tests) for said compound.

Experiment [2] shares this test system. Kind of experiment: Har peptide-induced platelet aggregation in platelet-rich plasma. In kind it is cell-based, human. To be noted: for IC50: multiple values = individual measurements. Here is the method: as §1, §2
The target of experiment [3] is T1, thrombin receptor (PAR-1) (Homo sapiens, UniProt P25116).
T1 construct: Human aortic smooth muscle cells (HSMC) were purchased from Cascade Biologics; host or cells: human aortic smooth muscle cells (HSMC)
T1 sequence (P25116 22-425): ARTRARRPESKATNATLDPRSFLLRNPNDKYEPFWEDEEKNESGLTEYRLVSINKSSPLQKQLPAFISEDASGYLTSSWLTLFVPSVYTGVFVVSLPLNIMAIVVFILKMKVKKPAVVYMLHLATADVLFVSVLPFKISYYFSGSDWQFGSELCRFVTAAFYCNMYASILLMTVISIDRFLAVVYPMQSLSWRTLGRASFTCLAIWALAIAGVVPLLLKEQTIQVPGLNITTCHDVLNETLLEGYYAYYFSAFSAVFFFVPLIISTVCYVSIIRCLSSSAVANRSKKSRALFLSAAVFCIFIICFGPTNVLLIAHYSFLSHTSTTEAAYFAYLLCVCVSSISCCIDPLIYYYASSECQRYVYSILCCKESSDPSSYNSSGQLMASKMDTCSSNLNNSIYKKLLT
Kind of experiment: FLIPR-based calcium-flux assay with human smooth muscle cells (Har peptide agonist). It is filed as cell-based. Conditions: HSMC; 30 nM Har (PAR1) peptide agonist; 80-min drug incubation; multiple values = individual measurements. Here is the method: Human aortic smooth muscle cells (HSMC) were purchased from Cascade Biologics (Portland, Oreg.) and cultured in M-231 containing smooth muscle cell growth supplement and 1× Antibiotic-Antimycotic.
To determine agonist concentration for compound testing: On the day prior to the assay, 100 μL of cells (2×10^5/mL) were seeded in clear, flat-bottom black-wall, tissue culture treated polystyrene 96-well plates and incubated at 37° C., 5% CO2. On the day of the assay, 50 μL of complete dye loading solution (FLIPR Calcium 3 Kit, Molecular Devices) was added to each well containing 100 μL of culture media. The cells were incubated for 30-45 min at 37° C., in 5% CO2 before initiating the assay on the FLIPR. The agonist effect of PAR1 peptide (S-(p-F-Phe)-Har-L-Har-KY-NH2; Har=homoarginine; referred to herein as “Har” peptide) was tested and the EC50 was determined. The EC60-70 dose was used (30 nM) for compound testing.
Compound testing: On the day prior to the assay, 90 μL of cells (2.2×10^5/mL) were seeded in clear, flat-bottom black-wall, tissue culture treated polystyrene 96-well plates and incubated at 37° C., 5% CO2. On the day of the assay, the test compounds were prepared at 10× in 3% DMSO Hanks buffer and 10 μL was added to each well (final DMSO concentration of 0.3%). The cells were incubated 20 min at 37° C., 5% CO2. Culture medium containing testing compounds was dumped and the cells were washed four times with DPBS containing 0.1% of BSA and re-fed with 80 μL of growth medium. 70 μL of BD (fluorescent) dye was loaded to the cells and incubated 45 min at 37° C. incubator. The plates were equilibrated to room temperature for 15 min. 4× PAR1 peptide (30 nM final concentration) agonist plate and the cell plate were placed in FLIPR's assay chamber. 50 μL agonist was added to the cells and data was recorded for 5 min. Raw fluorescence data was exported for each well and tabulated versus time within an ASCII file. Data was then imported into Excel® and the peak response over basal level was determined. The percent inhibition for each test compound was calculated by the changes of fluorescent density as a % inhibition of the control Har peptide response to obtain an IC50.
Representative compounds of the present invention were tested according to the procedure described in Biological Example 1 above, with results in Table 8 below. In Table 8 below, where multiple values are listed for a particular compound, said numbers represent individual measurements (tests) for said compound.

On to `CC(C)(C)c1cc(C(=O)CN2Cc3cc4c(cc3C2=N)OCc2cc([N+](=O)[O-])ccc2CO4)cc(C(C)(C)C)c1O` [Compound 84], for which the IC50 (usually the concentration at which inhibition is half-maximal) was 2510 nM in experiment [1] (Homo sapiens, Platelet); 2470 nM in experiment [2] (Homo sapiens, Platelet); 0.029 µM and 0.047 µM and 0.048 µM and 0.011 µM in experiment [3]. With `COc1c(N2CCOCC2)cc(C(=O)CN2Cc3cc4c(cc3C2=N)OCc2c(F)ccc(F)c2CO4)cc1C(C)(C)C` [Compound 88], the IC50 is 3550 nM in experiment [1] (Homo sapiens, Platelet); 2660 nM in experiment [1]; 1630 nM in experiment [2] (Homo sapiens, Platelet); 1210 nM in experiment [2]; 0.091 µM and 0.024 µM in experiment [3]. As for `CC(C)(C)c1cc(C(=O)CN2Cc3cc4c(cc3C2=N)OC/C=C\CO4)cc(C(C)(C)C)c1O` [Compound 100, (Z)-1-(3,5-di-tert-butyl-4-hydroxyphenyl)-2-(8-imino-2H-[1,4]-dioxocino[2,3-f]isoindol-9(5H,8H,10H)-yl)ethanone], the IC50 was 1920 nM in experiment [1] (Homo sapiens, Platelet); 1610 nM in experiment [2] (Homo sapiens, Platelet); 0.022 µM and 0.027 µM in experiment [3]. With `COC(=O)c1ccc2c(c1)COc1cc3c(cc1OC2)C(=N)N(CC(=O)c1cc(C(C)(C)C)c(O)c(C(C)(C)C)c1)C3` [Compound 80], the IC50 was above 10000 nM in experiment [1] (Homo sapiens, Platelet); above 10000 nM in experiment [1]; above 10000 nM in experiment [2] (Homo sapiens, Platelet); 13100 nM in experiment [2]; 0.073 µM and 0.16 µM in experiment [3]. For the compound `COc1c(N2CCOCC2)cc(C(=O)CN2Cc3cc4c(cc3C2=N)OCc2cc(C)c(C)cc2CO4)cc1C(C)(C)C` [Compound 98], the IC50 in experiment [1] (Homo sapiens, Platelet) was above 10000 nM; in experiment [2] (Homo sapiens, Platelet), above 10000 nM; in experiment [3], 0.27 µM and > 1 µM. With `COc1c(N2CCN(C)CC2)cc(C(=O)CN2Cc3cc4c(cc3C2=N)OCc2cccnc2CO4)cc1C(C)(C)C` [Compound 71], the IC50 in experiment [1] (Homo sapiens, Platelet) was 380 nM; in experiment [2] (Homo sapiens, Platelet) it was 290 nM; in experiment [2] it was 480 nM; in experiment [3], 0.064 µM and 0.044 µM. For `CC(C)(C)c1cc(C(=O)CN2Cc3cc4c(cc3C2=N)OCC(F)(F)C(F)(F)CO4)cc(C(C)(C)C)c1O` [Compound 91], the IC50 is above 10000 nM in experiment [1] (Homo sapiens, Platelet); above 10000 nM in experiment [1]; 12900 nM in experiment [2] (Homo sapiens, Platelet); 0.39 µM and 0.07 µM and 0.19 µM in experiment [3]. Further, the inhibition – broadly, the percentage by which the read-out fell short of the control – at 10 µM in experiment [2] (Homo sapiens, 10 μM compound) worked out at 26%. As for `CN1CCN(CCC2COc3cc4c(cc3OC2)C(=N)N(CC(=O)c2cc(C(C)(C)C)c(O)c(C(C)(C)C)c2)C4)CC1` (stereo not shown) [Compound 15], the IC50 in experiment [3] is above 3 µM. In experiment [1] (Homo sapiens, 10 μM compound), `Cc1cc2c(cc1C)COc1cc3c(cc1OC2)CN(CC(=O)c1cc(C(C)(C)C)c(O)c(C(C)(C)C)c1)C3=N` [Compound 99] gave an inhibition at 10 µM of 23%. The IC50 in experiment [2] (Homo sapiens, Platelet) is above 10000 nM; in experiment [3], 0.092 µM and 0.22 µM. On to `COC(=O)c1cc2c(cc1C(=O)OC)COc1cc3c(cc1OC2)CN(CC(=O)c1cc(C(C)(C)C)c(O)c(C(C)(C)C)c1)C3=N` [Compound 102], for which the half-inhibitory concentration (IC50) in experiment [3] is 0.35 µM. For the compound `COc1c(N2CCOCC2)cc(C(=O)CN2Cc3cc4c(cc3C2=N)OCC(CCN2CCOCC2)CO4)cc1C(C)(C)C` (stereo not shown) [Compound 43], in experiment [3], the half-maximal inhibitory concentration (IC50) is 0.45 µM and 0.68 µM. `COC(=O)c1cc2c(cc1C(=O)OC)COc1cc3c(cc1OC2)CN(CC(=O)c1cc(N2CCOCC2)c(OC)c(C(C)(C)C)c1)C3=N` [Compound 103]: the half-maximal inhibitory concentration (IC50) in experiment [3] was determined as 1.1 µM. On the same count and under the same terms, the result for `CN(C)CCC1COc2cc3c(cc2OC1)C(=N)N(CC(=O)c1cc(C(C)(C)C)c(O)c(C(C)(C)C)c1)C3` (stereo not shown) [Compound 16, 1-(3,5-di-tert-butyl-4-hydroxyphenyl)-2-(3-(2-(dimethylamino)ethyl)-7-imino-3,4-dihydro-[1,4]dioxepino[2,3-f]isoindol-8(2H,7H,9H)-yl)ethanone] reads above 1 µM.

Consider `COC(=O)c1ccc2c(c1)COc1cc3c(cc1OC2)CN(CC(=O)c1cc(C(C)(C)C)c(O)c(C(C)(C)C)c1)C3=N` [Compound 55], for which the IC50 is above 10000 nM in experiment [1] (Homo sapiens, Platelet); above 10000 nM in experiment [1]; 2430 nM and > 10000 nM and 11100 nM in experiment [2]. For the compound `CNCCC1COc2cc3c(cc2OC1)C(=N)N(CC(=O)c1cc(C(C)(C)C)c(O)c(C(C)(C)C)c1)C3` (stereo not shown) [Compound 37], the IC50 in experiment [3] is above 3 µM.

Turning to `COc1c(N2CCOCC2)cc(C(=O)CN2Cc3cc4c(cc3C2=N)OCC(CCN2CCSC2)CO4)cc1C(C)(C)C` (stereo not shown) [Compound 45], the IC50 in experiment [3] was 0.15 µM and 0.18 µM.

On to `COc1c(N2CCOCC2)cc(C(=O)CN2Cc3cc4c(cc3C2=N)OCC(CC2NCCS2)CO4)cc1C(C)(C)C` (stereo not shown) [Compound 44], for which the IC50 in experiment [3] is 0.1 µM and 0.12 µM. In the case of `CC(C)(C)c1cc(C(=O)CN2Cc3cc4c(cc3C2=N)OCCCCO4)cc(C(C)(C)C)c1O` [Compound 5], the IC50 in experiment [3] was 0.032 µM. In the case of `CC(C)(C)c1cc(C(=O)CN2Cc3cc4c(cc3C2=N)OCc2cccnc2CO4)cc(C(C)(C)C)c1O` [Compound 48], the IC50 in experiment [3] is 0.044 µM and 0.053 µM. As for `COc1c(N2CCOCC2)cc(C(=O)CN2Cc3cc4c(cc3C2=N)OCCNCCO4)cc1C(C)(C)C` [Compound 42, 1-(3-tert-butyl-4-methoxy-5-morpholinophenyl)-2-(9-imino-3,4,5,6-tetrahydro-[1,4,7]dioxazonino[2,3-f]isoindol-10(2H,9H,11H)-yl)ethanone], in experiment [3], the IC50 is 0.66 µM and > 1 µM and 1.3 µM. On the same count and under the same terms, the result for `CC(C)(C)c1cc(C(=O)CN2Cc3cc4c(cc3C2=N)OCC(CCN2CCCC2)CO4)cc(C(C)(C)C)c1O` (stereo not shown) [Compound 13] reads above 3 µM; that for `CC1(C)COc2cc3c(cc2OC1)C(=N)N(CC(=O)c1cc(C(C)(C)C)c(O)c(C(C)(C)C)c1)C3` [Compound 9], 0.16 µM. Consider `COc1c(N2CCOCC2)cc(C(=O)CN2Cc3cc4c(cc3C2=N)OCCN(C(=O)OC(C)(C)C)CCO4)cc1C(C)(C)C` [Compound 41, tert-butyl 10-(2-(3-tert-butyl-4-methoxy-5-morpholinophenyl)-2-oxoethyl)-9-imino-2,3,5,6,10,11-hexahydro-[1,4,7]dioxazonino[2,3-f]isoindole-4(9H)-carboxylate], for which the IC50 in experiment [3] was 0.54 µM and > 1 µM and 1.2 µM. Take `COc1c(Br)cc(C(=O)CN2Cc3cc4c(cc3C2=N)OCc2ncccc2CO4)cc1C(C)(C)C` [Compound 54]: the IC50 in experiment [3] was 1.1 µM and > 3 µM and 0.75 µM. In the case of `CC(C)(C)c1cc(C(=O)CN2Cc3cc4c(cc3C2=N)OCC(CC=O)CO4)cc(C(C)(C)C)c1O` (stereo not shown) [Compound 14, 2-(8-(2-(3,5-di-tert-butyl-4-hydroxyphenyl)-2-oxoethyl)-7-imino-2,3,4,7,8,9-hexahydro-[1,4]dioxepino[2,3-f]isoindol-3-yl)acetaldehyde], in experiment [3], the IC50 was found to be 0.78 µM. With `CC(C)(C)c1cc(C(=O)CN2Cc3cc4c(cc3C2=N)OCCCO4)cc(C(C)(C)C)c1O` [Compound 4, 1-(3,5-di-tert-butyl-4-hydroxyphenyl)-2-(7-imino-3,4-dihydro-[1,4]dioxepino[2,3-f]isoindol-8(2H,7H,9H)-yl)ethanone], the 50% inhibitory concentration (IC50) in experiment [3] is 0.13 µM and 0.068 µM. Same read-out and setting: the result for `CC(C)(C)c1cc(C(=O)CN2Cc3cc4c(cc3C2=N)OCC(CCN2CCOCC2)CO4)cc(C(C)(C)C)c1O` (stereo not shown) [Compound 12] reads 0.551 µM.
